Source: patent US6472348B1, “Pyridone derivatives and herbicides” (Kumiai Chemical Industry Co., Ltd., priority 1996, dated 2002)

How the values were obtained:
barnyardgrass (Ec) = assay: Test Example 2: herbicidal effects by upland field soil treatment; format: in vivo; conditions: 100 g of the active ingredient per 10 ares;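 also: grade of growth control; 5 = at least 90%; 4 = 70 to 90%; 3 = 50 to 70%; 2 = 30 to 50%; 1 = 10 to 30%; 0 = under 10%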
Source text: (§1) (Test on Herbicidal Effects by Upland Field Soil Treatment)

[1] = system: common lambsquarters (Ch); assay: as above; format: in vivo; conditions: 100 g of the active ingredient per 10 ares
Source text: as §1

pale smartweed (Po) [2] = assay: as above; format: in vivo; conditions: 100 g of the active ingredient per 10 ares
Source text: as §1

rice flatsedge (Ci) = assay: as above; format: in vivo; conditions: 100 g of the active ingredient per 10 ares;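 also: grade of growth control; 5 = at least 90%; 4 = 70 to 90%; 3 = 50 to 70%; 2 = 30 to 50%; 1 = 10 to 30%; 0 = under 10%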
Source text: as §1

China jute (Ab) = assay: Test Example 4: crop plant selectivity by upland field soil treatment (cotton), herbicidal effects; format: in vivo; design: scale not given here; conditions: evaluated 21st day after application
Summary of the method: (§2)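 Cotton is sown alongside weeds in pots of sand, covered with soil, and the soil surface is treated. After greenhouse growth, herbicidal activity and phytotoxicity are graded on the 21st day.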

[3] = system: common lambsquarters (Ch); assay: as above; format: in vivo; design: scale not given here; conditions: evaluated 21st day after application
Summary of the method: as §2

pale smartweed (Po) [4] = assay: as above; format: in vivo; design: scale not given here; conditions: evaluated 21st day after application
Summary of the method: as §2

slender amaranth (Am) = assay: as above; format: in vivo; design: scale not given here; conditions: evaluated 21st day after application
Summary of the method: as §2

corn (Ze) = assay: Test Example 11: crop plant selectivity by upland field foliage treatment (corn), phytotoxicity; conditions: dose 1.6 g ai/10a
Summary of the method: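 Corn with pale smartweed, slender amaranth, common lambsquarters and China jute sown in sand-filled pots and grown 2 weeks in a greenhouse before foliage treatment. Herbicidal effect and crop phytotoxicity scored on day 14 after treatment against a rating standard.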

[5] = evaluated on the 21st day after application
[6] = corn, foliage treatment, evaluated on 14th day after treatment, index per Table 47
[7] = 21st day after the application, index 0-5 of Table 47

Structure (SMILES) | Herbicidal effects Ec (barnyardgrass (Ec); [5]) | Herbicidal effects Ch [1, 5] | Herbicidal effects Po (pale smartweed (Po) [2]; [5]) | Herbicidal effects Ci (rice flatsedge (Ci); [5]) | Herbicidal effects Ab (China jute (Ab); dose 1.6 g ai/10 a) | Herbicidal effects Ab (China jute (Ab); dose 6.3 g ai/10 a) | Herbicidal effects Ch ([3]; dose 1.6 g ai/10 a) | Herbicidal effects Ch ([3]; dose 6.3 g ai/10 a) | Herbicidal effects Po (pale smartweed (Po) [4]; dose 1.6 g ai/10 a) | Herbicidal effects Po (pale smartweed (Po) [4]; dose 6.3 g ai/10 a) | Herbicidal effects Am (slender amaranth (Am); dose 1.6 g ai/10 a) | Herbicidal effects Am (slender amaranth (Am); dose 6.3 g ai/10 a) | Phytotoxicity Ze (corn (Ze); [6]) | Herbicidal effects Ec (barnyardgrass (Ec); [7]) | Herbicidal effects Ch [1, 7] | Herbicidal effects Po (pale smartweed (Po) [2]; [7]) | Herbicidal effects Ci (rice flatsedge (Ci); [7]) | Phytotoxicity Ze (corn (Ze); upland field foliage treatment, 14th day after treatment)
C#CC(C)Oc1cc(-c2cn(C)c(C(F)(F)F)cc2=O)c(F)cc1Cl (racemic) [Compound 6-10] | 5 | 5 | 5 | 5 | 4 | 5 | 5 | 5 | 5 | 5 | 5 | 5 | 1 | – | – | – | – | –
COc1cc(-c2ccc(C(F)(F)F)n(C)c2=O)c(F)cc1Cl [1-15] | – | – | – | – | 5 | 5 | 5 | 5 | 5 | 5 | 5 | 5 | – | 5 | 5 | 5 | 5 | –
C=CCOc1cc(-c2ccc(C(F)(F)F)n(C)c2=O)c(F)cc1Cl [1-16] | – | – | – | – | 5 | 5 | 5 | 5 | 5 | 5 | 5 | 5 | – | 5 | 5 | 5 | 5 | 2
C#CC(C)Oc1cc(-c2ccc(C(F)(F)F)n(C)c2=O)c(F)cc1Cl (stereo not drawn) [1-17] | – | – | – | – | 5 | 4 | 5 | 5 | 5 | 5 | 5 | 5 | – | 5 | 5 | 5 | 5 | –
CC(C)Sc1cc(-c2ccc(C(F)(F)F)n(C)c2=O)c(F)cc1Cl [1-43] | – | – | – | – | – | 4 | – | 5 | – | 5 | – | 5 | – | 5 | 5 | 5 | 5 | –
C#CCSc1cc(-c2ccc(C(F)(F)F)n(C)c2=O)c(F)cc1Cl [1-44] | – | – | – | – | – | 5 | – | 5 | – | 5 | – | 5 | – | 5 | 5 | 5 | 5 | –
Cc1cc(-c2ccc(C(F)(F)F)n(C)c2=O)c(F)cc1Cl [1-90] | – | – | – | – | – | 5 | – | 5 | – | 5 | – | 5 | – | 5 | 5 | 5 | 5 | –
COCSc1cc(-c2ccc(C(F)(F)F)n(C)c2=O)c(F)cc1Cl [1-91] | – | – | – | – | 5 | 5 | 5 | 5 | 5 | 5 | 5 | 5 | – | 5 | 5 | 5 | 5 | –
Cn1c(C(F)(F)F)ccc(-c2cc(OCC(F)(F)F)c(Cl)cc2F)c1=O [1-155] | – | – | – | – | 5 | 5 | 5 | 5 | 5 | 5 | 5 | 5 | – | 5 | 5 | 5 | 5 | –
Cn1c(C(F)(F)F)ccc(-c2cc(OCC3CC3)c(Cl)cc2F)c1=O [1-160] | – | – | – | – | – | 5 | – | 5 | – | 5 | – | 5 | – | 5 | 5 | 5 | 5 | –
C#CC(O)c1cc(-c2ccc(C(F)(F)F)n(C)c2=O)c(F)cc1Cl (stereo not drawn) [Compound 1-202] | 5 | 5 | 5 | 5 | 5 | 5 | 5 | 5 | 5 | 5 | 5 | 5 | – | – | – | – | – | –
C=CCN1C(=O)COc2cc(F)c(-c3ccc(C(F)(F)F)n(C)c3=O)cc21 [Compound 2-7] | 5 | 5 | 5 | 5 | 5 | 5 | 4 | 5 | 5 | 5 | 5 | 5 | – | – | – | – | – | –
Cc1cc2c(-c3ccc(C(F)(F)F)n(C)c3=O)c(F)cc(Cl)c2o1 [Compound 4-1] | 5 | 5 | 5 | 5 | 5 | 5 | 5 | 5 | 5 | 5 | 5 | 5 | – | – | – | – | – | –
CCc1cc2c(-c3ccc(C(F)(F)F)n(C)c3=O)c(F)cc(Cl)c2o1 [Compound 4-2] | 5 | 5 | 5 | 5 | 5 | 5 | 5 | 5 | 5 | 5 | 5 | 5 | – | – | – | – | – | –
C#CCN1C(=O)COc2cc(F)c(-c3cn(C)c(C(F)(F)F)cc3=O)cc21 [Compound 7-1] | 5 | 5 | 5 | 5 | – | 5 | – | – | – | 5 | – | 5 | 2 | – | – | – | – | –
C#CCn1c(=O)sc2cc(F)c(-c3ccc(C(F)(F)F)n(C)c3=O)cc21 [Compound No. 3-1, 3-[6-fluoro-3-(2-propynyl)-benzothiazolin-2-on-5-yl]-1-methyl-6-trifluoromethyl-2(1H)-pyridone] | 5 | 5 | 5 | 5 | 5 | 5 | 5 | 5 | 5 | 5 | 5 | 5 | – | – | – | – | – | –
Cn1cc(-c2cc(Oc3ccccc3)c(Cl)cc2F)c(=O)cc1C(F)(F)F [Compound No. 6-19, 5-(4-chloro-2-fluoro-5-phenoxyphenyl)-1-methyl-2-trifluoromethyl-4(1H)-pyridone] | 5 | 5 | 5 | 5 | 3 | 5 | 5 | 5 | 5 | 5 | 5 | 5 | – | – | – | – | – | –
